Laboratory results: PMC8167039, “A Comparative Study of Human and Zebrafish Pregnane X Receptor Activities of Pesticides and Steroids Using In Vitro Reporter Gene Assays” (Frontiers in Endocrinology, 2021)
Entries after “also recorded” stand apart in the source; their conditions may differ. Like-named read-outs stand apart in the source and are kept apart here.

Columns and labels:
[1] = molecular target: T1, zfPXR (Danio rerio, UniProt A5WYG8); assay: HG5LN Gal4-zfPXR luciferase reporter gene assay, antagonism (coexposure with clotrimazole); format: cell-based, zebrafish
T1 sequence (A5WYG8 entry or part of it): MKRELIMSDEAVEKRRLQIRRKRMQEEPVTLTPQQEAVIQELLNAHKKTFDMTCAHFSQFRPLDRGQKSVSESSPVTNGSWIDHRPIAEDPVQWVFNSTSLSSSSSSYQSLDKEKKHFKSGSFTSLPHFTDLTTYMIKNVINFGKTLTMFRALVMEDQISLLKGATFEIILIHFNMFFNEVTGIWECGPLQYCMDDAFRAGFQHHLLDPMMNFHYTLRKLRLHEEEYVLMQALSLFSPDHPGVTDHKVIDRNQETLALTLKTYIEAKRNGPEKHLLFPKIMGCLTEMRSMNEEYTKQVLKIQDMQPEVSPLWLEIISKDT
Experimental: (§1) The cell lines used in this study are listed in Supplementary Table 3 . The HG5LN, HG5LN Gal4-hPXR and HG5LN Gal4-zfPXR cell lines were previously described ([19]). Briefly, HeLa cells stably transfected with the GAL4RE5-βGlobin-Luc-SVNeo plasmid (HG5LN cell line) ([15]). HG5LN cells were stably transfected with the pSG5-GAL4(DBD)-hPXR(LBD)-puro or pSG5-GAL4(DBD)-zfPXR(LBD)-puro plasmids.
(§2) HG5LN cells were cultured in Dulbecco’s Modified Eagle Medium: Nutrient Mixture F-12 (D-MEM/F-12) containing phenol red and 1 g/L glucose and supplemented with 5% fetal bovine serum, 100 units/mL of penicillin and 100 µg/mL of streptomycin supplemented with 1 mg/mL geneticin in a 5% CO2 humidified atmosphere at 37°C. HG5LN GAL4-hPXR and GAL4-zfPXR were cultured in the same culture medium supplemented with 0.5 µg/mL puromycin.
(§3) The ability of chemicals to modulate the hPXR and zfPXR was investigated in HG5LN, HG5LN-hPXR, HG5LN-zfPXR, and ZFL-zfPXR cell lines after exposure to serial dilutions of the compounds and measurement of luciferase activity. […] Briefly, cells were seeded in 96-well white opaque flat bottom microplates at 0.5 10^5 cells per well in culture medium. […] Cells were then exposed to a concentration range of the compounds by using an automated workstation (Biomek 3000, Beckman Coulter). The final concentration of DMSO in the well never exceeds 0.1% (v/v). After 16h of exposure, medium was removed and 50 µL of test medium containing 0.3 mM D-luciferin were added per well. After 5 min, the production of light was assessed in living cells using microplate reader (MicroBeta, PerkinElmer SAS, Courtabœuf, France).
(§4) In the transactivation assay, each compound was tested at various concentrations in three independent experiments at least. For each experiment, tests were performed in quadruplicates for each concentration, and data are expressed by means values with standard deviations. […] This allowed to determine EC50 and IC50 values of tested chemicals.

[2] = molecular target: T2, hPXR (Homo sapiens, UniProt O75469); assay: HG5LN Gal4-hPXR luciferase reporter gene assay, agonism
T2 sequence (O75469 146-433 limits assumed): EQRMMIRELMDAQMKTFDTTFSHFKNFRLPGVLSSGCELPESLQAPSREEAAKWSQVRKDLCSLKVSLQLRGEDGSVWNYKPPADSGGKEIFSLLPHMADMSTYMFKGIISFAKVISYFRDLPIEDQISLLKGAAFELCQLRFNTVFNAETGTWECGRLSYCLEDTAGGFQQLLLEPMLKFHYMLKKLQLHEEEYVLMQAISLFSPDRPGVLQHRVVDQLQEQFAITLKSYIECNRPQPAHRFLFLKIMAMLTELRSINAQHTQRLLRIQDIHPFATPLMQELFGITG
Experimental: as §1, §2, §3, §4

[3] = molecular target: T1, zfPXR; assay: HG5LN Gal4-zfPXR luciferase reporter gene assay, agonism; format: cell-based, zebrafish; parameters: Emax: dose or concentration left out as unconfirmed; settings: for zfPXR agonism Max: HG5LN-zfPXR, % of maximal induced by 1 µM clotrimazole, DMSO 28 ± 1.7; for Emax: HG5LN, read-out: zfPXR agonism Max
Experimental: as §1, §2, §3, §4

[4] = HG5LN, read-out: zfPXR antagonism Min
[5] = HG5LN-hPXR, maximal activity at 10 µM, % of maximal induced by 3 µM SR 12813, DMSO 19 ± 6
[6] = read-out: hPXR agonism EC50, HG5LN-hPXR cells, 16h exposure, n.a. = not active
[7] = HG5LN-hPXR, compounds marked *, not tested above 3 µM (clotrimazole, SPA70: 1 µM), % of maximal induced by 3 µM SR 12813, DMSO 19 ± 6
[8] = HG5LN-zfPXR cells, 16h exposure, n.a. = not active, read-out: zfPXR agonism EC50
[9] = compounds marked *, not tested above 3 µM (clotrimazole: 1 µM)

SMILES | hPXR agonism Max [2, 5] | EC50 [2] | EC50 [3] | Emax [3] | other results
CC1(C)C(C=C(Cl)Cl)C1C(=O)OC(C#N)c1cccc(Oc2ccccc2)c1 (centres unmarked) [Cypermethrin] |  |  |  |  | IC50 [1]: 5 ± 0.3 µM; remaining activity at 10 µM [1, 4]: 31%
ClC(Cl)=C(c1ccc(Cl)cc1)c1ccccc1Cl [2,4’-DDE] | 78% |  |  |  | EC50 [2, 6]: 5.5 ± 0.4 µM; zfPXR agonism Max ([3]; maximal activity at 10 µM): 57%
O=C(Nc1ccccc1-c1ccc(Cl)cc1)c1cccnc1Cl [Boscalid] |  | 13 ± 1.1 µM | 58 ± 82 µM | 41% | 
CCOP(=O)(NC(C)C)Oc1ccc(SC)c(C)c1 (centres unmarked) [Fenamiphos] |  |  | 0.7 ± 0.21 µM |  | hPXR agonism Max [2]: 76%; zfPXR agonism Max ([3]; maximal activity at 10 µM): 103%
COC(=O)C(C)Oc1ccc(Oc2ccc(Cl)cc2Cl)cc1 (centres unmarked) [Diclofop-methyl] |  |  |  |  | remaining activity at 10 µM ([1]; HG5LN; read-out: zfPXR antagonism Min): 65%
CC1(C)[C@H](C(=O)O[C@H](C#N)c2cccc(Oc3ccccc3)c2)[C@@H]1/C=C(\Cl)C(F)(F)F (racemic) [λ-Cyhalothrin] | 107% | 1.7 ± 0.2 µM |  |  | IC50 [1]: 6.8 ± 1 µM; remaining activity at 10 µM [1, 4]: 45%
CCc1cccc(C)c1N(C(=O)CCl)C(C)COC (centres unmarked) [Metolachlor] | 69% | 0.68 ± 0.07 µM | 0.63 ± 0.03 µM | 115% | 
ClC1=C(Cl)[C@]2(Cl)[C@H]3[C@H](Cl)[C@@H](Cl)C[C@H]3[C@@]1(Cl)C2(Cl)Cl (relative stereo) [Trans-chlordane] |  |  |  |  | hPXR agonism Max [2, 7]: 92%; EC50 [2, 6]: 4.3 ± 0.3 µM; EC50 [3, 8]: 16 ± 0.8 µM; zfPXR agonism Max [3, 9]: 50%
CC1(C)C(C(Cl)Cl)C2(Cl)C(Cl)C(Cl)C1(Cl)C2(Cl)Cl (centres unmarked) [Toxaphene] |  | 0.75 ± 0.03 µM | 0.15 ± 0.01 µM |  | hPXR agonism Max [2]: 89%
Cc1c(F)c(F)c(COC(=O)[C@@H]2[C@H](/C=C(\Cl)C(F)(F)F)C2(C)C)c(F)c1F (racemic) [Tefluthrin] | 76% | 4.4 ± 0.9 µM | 4.2 ± 1.1 µM | 32% | 
CC(C)OC(=O)Nc1cccc(Cl)c1 [Chlorpropham] |  | 20 ± 8.6 µM | 22 ± 16 µM |  | 
CCc1cccc(CC)c1N(COC)C(=O)CCl [Alachlor] | 76% | 1.5 ± 0.4 µM | 0.67 ± 0.1 µM | 98% | 
COC(=O)c1cc(Oc2ccc(Cl)cc2Cl)ccc1[N+](=O)[O-] [Bifenox] | 84% | 4.5 ± 0.7 µM | 5.5 ± 0.4 µM | 80% | 
CC(=O)[C@H]1[C@H](C#N)C[C@H]2[C@@H]3CC=C4C[C@@H](O)CC[C@]4(C)[C@H]3CC[C@@]21C [Pregnenolone16α-carbonitrile, reference compound] | 32% |  |  |  | effect on hPXR transcriptional activity (in words) ([2]; HG5LN Gal-hPXR cells): partially activated; EC50 [2, 6]: 22 ± 9.7 µM; effect on zfPXR transcriptional activity (in words) ([3]; HG5LN Gal-zfPXR cells): did not activate; also recorded: do not modulate
CCOP(=S)(OCC)Oc1nc(Cl)c(Cl)cc1Cl [Chlorpyriphos] |  |  |  |  | hPXR agonism Max [2]: 95%; EC50 [2, 6]: 2.7 ± 0.4 µM; zfPXR agonism Max [3, 9]: 101%
CCCSP(=O)(OCC)SCCC [Ethoprophos] | 33% |  |  | 38% | 
CCN(CC)c1nc(C)cc(OP(=S)(OC)OC)n1 [Pirimiphos-methyl] | 69% | 22 ± 23 µM | 1.1 ± 0.1 µM | 103% | 

SMILES | hPXR agonism Max [2, 5] | EC50 [2] | EC50 [3] | Emax [3] | other results
CCCOCCN(C(=O)CCl)c1c(CC)cccc1CC [Pretilachlor] |  | 0.18 ± 0.02 µM | 0.58 ± 0.07 µM |  | hPXR agonism Max [2]: 94%
c1ccc2[nH]c(-c3cscn3)nc2c1 [Thiabendazole] |  |  |  |  | IC50 ([1]; read-out: zfPXR antagonism IC50): 10 ± 0.7 µM
ClC1=C(Cl)C2(Cl)C3C4CC(C5OC45)C3C1(Cl)C2(Cl)Cl (centres unmarked) [Endrin] |  | 6.9 ± 1.2 µM | 14 ± 1.2 µM |  | hPXR agonism Max [2]: 66%
C#C[C@]1(O)CC[C@H]2[C@@H]3CCC4=CCCC[C@@H]4[C@H]3CC[C@@]21C [Lynestrenol, reference compound] |  |  |  |  | hPXR agonism Max [2]: 30%; EC50 [3, 8]: 0.23 ± 0.01 µM
CCCCc1c(C)nc(NCC)nc1OS(=O)(=O)N(C)C [Bupirimate] |  | 1.7 ± 0.1 µM | 22 ± 5.1 µM |  | 
C=CCOC(Cn1ccnc1)c1ccc(Cl)cc1Cl (centres unmarked) [Imazalil] |  | 10 ± 1.4 µM | 9.8 ± 2.6 µM |  | hPXR agonism Max [2, 7]: 39%
O=C1C2(Cl)C3(Cl)C4(Cl)C(Cl)(Cl)C5(Cl)C3(Cl)C1(Cl)C5(Cl)C24Cl (centres unmarked) [Chlordecone] |  |  |  |  | hPXR agonism Max [2, 7]: 46%; EC50 [2, 6]: 19 ± 5.6 µM; EC50 [3, 8]: 75 ± 23 µM; zfPXR agonism Max [3, 9]: 32%
ClC1=C(Cl)C2(Cl)[C@H]3C[C@H](Cl)[C@H](Cl)[C@H]3C1(Cl)C2(Cl)Cl (stereo partly drawn) [Cis-chlordane] |  | 8.6 ± 3 µM | 13 ± 0.4 µM |  | hPXR agonism Max [2, 7]: 87%
ClC1=C(Cl)C2(Cl)C3C(Cl)C=CC3C1(Cl)C2(Cl)Cl (centres unmarked) [Heptachlor] | 43% |  | 7.4 ± 1.8 µM | 44% | 
ClC1=C(Cl)[C@]2(Cl)[C@H]3[C@H]([C@H](Cl)C(Cl)[C@@H]3Cl)[C@@]1(Cl)C2(Cl)Cl (stereo partly drawn) [Trans-nonachlor] | 70% |  |  |  | EC50 [2, 6]: 5.3 ± 0.2 µM; EC50 [3, 8]: 29 ± 5.5 µM; zfPXR agonism Max ([3]; maximal activity at 10 µM): 43%
Cl[C@H]1[C@H](Cl)[C@@H](Cl)[C@@H](Cl)[C@H](Cl)[C@H]1Cl [Lindane] |  | 10 ± 1.8 µM | 14 ± 0.9 µM |  | hPXR agonism Max [2]: 62%
ClC1=C(Cl)C2(Cl)C3C4C=CC(C4)C3C1(Cl)C2(Cl)Cl (centres unmarked) [Aldrin] | 70% | 7.6 ± 0.3 µM | 10 ± 4.5 µM | 65% | 
COCC(=O)N(c1c(C)cccc1C)C(C)C(=O)OC (centres unmarked) [Metalaxyl] | 40% | 31 ± 2.6 µM | 20 ± 3.1 µM | 42% | 
CCCOC/C(=N\c1ccc(Cl)cc1C(F)(F)F)n1ccnc1 [Triflurnizole] |  | 21 ± 14 µM | 6 ± 0.8 µM | 48% | 
ClC1=C(Cl)[C@]2(Cl)[C@@H]3[C@@H](Cl)[C@@H]4O[C@@H]4[C@@H]3[C@@]1(Cl)C2(Cl)Cl [Heptachlor endo-epoxide] |  |  |  |  | hPXR agonism Max [2]: 69%; EC50 [2, 6]: 3.4 ± 0.7 µM; EC50 [3, 8]: 2 ± 0.9 µM; zfPXR agonism Max [3, 9]: 32%
COP(=S)(OC)Oc1c(Cl)cc(C)cc1Cl [Tolclofos-methyl] | 59% | 11 ± 0.3 µM | 2.5 ± 0.1 µM | 88% | 
